Format in all cases: cell-based
Assay [1] has as its target T1, TLR2 (Mus musculus, UniProt Q9QUN7).
T1 construct: endogenous in cells; host or cells: RAW 264.7
As to the kind of experiment: TLR2 functional assay, cytokine release from RAW 264.7 mouse macrophage cell line. Conditions: average of all runs. In short, it runs like this: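 RAW 264.7 cells plated (about 40,000 per well) and treated with compounds at varying concentrations for 6–24 h (or overnight). Released cytokines in supernatant (e.g. TNF-alpha, IL-1, IL-10, IL-12) measured by ELISA or MSD multiplex; EC50 fitted.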

The target of assay [2] is T2, TLR2 (Homo sapiens, UniProt O60603). As to the kind of experiment: TLR2 in vitro functional assay, cytokine release from human monocytic cell line THP-1. Conditions: THP-1 human monocytic cell line, average of all runs. On the procedure: Cells of the immune system respond to TLR agonists in part by secreting cytokines. Functional assays for TLR2 agonists measure cytokine release from purified immune cells or immortalized cell lines derived from immune cells. Cytokine release is measured by standard ELISA approaches or multiplexed analysis using the Meso Scale Discovery (MSD) platform.
T2 sequence (O60603 21-784): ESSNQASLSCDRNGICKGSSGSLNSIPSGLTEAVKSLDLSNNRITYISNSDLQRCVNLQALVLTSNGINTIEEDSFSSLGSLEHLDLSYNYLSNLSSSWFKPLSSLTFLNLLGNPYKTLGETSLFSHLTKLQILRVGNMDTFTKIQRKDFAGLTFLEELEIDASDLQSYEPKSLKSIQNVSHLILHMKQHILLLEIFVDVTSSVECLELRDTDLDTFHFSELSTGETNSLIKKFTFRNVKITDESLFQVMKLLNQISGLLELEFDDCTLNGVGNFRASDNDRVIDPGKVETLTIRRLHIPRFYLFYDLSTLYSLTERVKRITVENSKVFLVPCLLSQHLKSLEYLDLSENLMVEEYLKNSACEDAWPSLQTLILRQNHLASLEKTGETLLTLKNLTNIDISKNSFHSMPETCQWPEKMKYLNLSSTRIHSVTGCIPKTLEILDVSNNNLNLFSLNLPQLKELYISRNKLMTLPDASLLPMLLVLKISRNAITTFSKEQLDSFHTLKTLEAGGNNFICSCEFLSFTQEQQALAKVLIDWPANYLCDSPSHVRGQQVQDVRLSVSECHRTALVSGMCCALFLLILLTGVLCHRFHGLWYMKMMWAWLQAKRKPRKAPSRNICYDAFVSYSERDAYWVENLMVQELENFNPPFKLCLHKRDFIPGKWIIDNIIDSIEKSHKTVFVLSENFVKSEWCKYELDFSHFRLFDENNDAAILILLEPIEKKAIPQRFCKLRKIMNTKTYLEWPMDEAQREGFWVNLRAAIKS
Following assay measurements utilizing either HEK-Blue detection or cytokine release, all data is analyzed with the GraphPad Prism8 statistical package to determine EC50, binding and activity metrics for the TLR2 modulators. […]
Numerous cell lines derived from various cell types can respond to TLR2 agonists with stereotyped cytokine and chemokine secretion. In particular, cell lines derived from macrophages respond robustly to TLR2 agonists by secreting a wide array of cytokines, including (but not limited to) TNF-alpha, IL-1, IL-10 and IL-12. The human monocytic cell line THP-1, the mouse macrophage line RAW-264.7, and the rat macrophage line NR8383 were used. For each assay, the respective cell lines were plated into 96-well plates overnight and then treated the following day with various TLR2-engaging compounds at varying concentrations. The next day, supernatants were collected and assayed by multiplex immunodetection for cytokines released (MSD detection kits for respective species).
Data provided in Table 5 is generated using protocols described in Example 45 and 46.

Assay [3] has as its target T2, TLR2. The experiment in a line: TLR2 agonist screening assay, HEK-Blue TLR2 reporter cell line (NF-kB-driven SEAP, absorbance at 600 nm). More on the design: host or cells: HEK-293 (HEK-Blue TLR2 reporter cell line). Conditions: HEK-Blue TLR2 reporter cells, agonist mode. In short, it runs like this: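 Read-out: SEAP colour change, A600, after overnight agonist exposure. Cells: HEK-293 overexpressing TLR2, NF-kB-SEAP reporter, ~40,000/well, plated 16-24 h prior.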

Each structure is given as a SMILES string. Structures can show the parent of a compound that is named as a salt.

Experimental findings from patent publication US11951094B2, “TLR2 modulator compounds, pharmaceutical compositions and uses thereof” (Axial Therapeutics, Inc., priority 2020, dated 2024) are described below.

The term EC50 denotes the midpoint of the concentration-response curve. Higher therefore signals weaker potency.

T1 sequence (Q9QUN7 25-784): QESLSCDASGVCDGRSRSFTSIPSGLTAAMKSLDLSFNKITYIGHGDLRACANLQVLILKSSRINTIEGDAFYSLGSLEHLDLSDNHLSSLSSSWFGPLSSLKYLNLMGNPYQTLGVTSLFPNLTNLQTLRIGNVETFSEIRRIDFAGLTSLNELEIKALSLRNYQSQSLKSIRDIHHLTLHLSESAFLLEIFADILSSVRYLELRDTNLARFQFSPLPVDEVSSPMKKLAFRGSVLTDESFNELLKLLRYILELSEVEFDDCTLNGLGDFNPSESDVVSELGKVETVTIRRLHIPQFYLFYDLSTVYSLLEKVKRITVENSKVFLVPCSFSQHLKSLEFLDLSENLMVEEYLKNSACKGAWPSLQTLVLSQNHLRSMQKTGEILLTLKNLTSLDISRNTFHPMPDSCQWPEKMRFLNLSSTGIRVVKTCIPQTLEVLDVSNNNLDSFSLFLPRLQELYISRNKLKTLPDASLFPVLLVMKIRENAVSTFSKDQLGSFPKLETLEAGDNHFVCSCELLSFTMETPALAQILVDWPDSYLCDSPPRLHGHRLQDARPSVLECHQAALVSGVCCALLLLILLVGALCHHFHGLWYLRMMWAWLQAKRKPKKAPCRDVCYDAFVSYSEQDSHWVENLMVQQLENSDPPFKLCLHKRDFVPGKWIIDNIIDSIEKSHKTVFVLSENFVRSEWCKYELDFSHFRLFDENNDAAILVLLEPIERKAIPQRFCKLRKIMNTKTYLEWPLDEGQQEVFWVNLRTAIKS

On to `CCCCCCCCCCCCCCNC(=O)[C@H]1CN(C(=O)c2ccc(C(=O)N3C[C@@H](C(=O)N[C@H]4C[C@@H]4c4ccccc4)[C@H](C(=O)N[C@H]4C[C@@H]4c4ccccc4)C3)cc2)C[C@H]1OC` (relative stereo) [Compound 108, (3S,4S)-1-(4-((3S*,4S*)-3-methoxy-4-(tetradecylcarbamoyl)pyrrolidine-1-carbonyl)benzoyl)-N3,N4-bis((1S,2R)-2-phenylcyclopropyl)pyrrolidine-3,4-dicarboxamide], for which the EC50 lay within 51 to 350 nM at TLR2 [1], 0.1 to 50 nM on TLR2 [2] and 0.1 to 50 nM on TLR2 [3] (average of all runs (Table 4)).
Regarding `CCCCCCCCCCCCCCNC(=O)[C@@H]1CN(C(=O)c2ccc(C(=O)N3C[C@@H](C(=O)N[C@H]4C[C@@H]4c4ccccc4)[C@H](C(=O)N[C@H]4C[C@@H]4c4ccccc4)C3)cc2)C[C@@H]1O` (single isomer, unassigned) [Compound 044, (3S,4S)-1-(4-((3R*,4R*)-3-hydroxy-4-(tetradecylcarbamoyl)pyrrolidine-1-carbonyl)benzoyl)-N3,N4-bis((1S,2R)-2-phenylcyclopropyl)pyrrolidine-3,4-dicarboxamide], the EC50 at TLR2 [2] and at TLR2 [3] (average of all runs (Table 3)) was 0.1 to 50 nM in each case.
`CCCCCCCO[C@@H]1CN(C(=O)c2ccc(C(=O)N3C[C@@H](C(=O)N[C@H]4C[C@@H]4c4ccccc4)[C@H](C(=O)N[C@H]4C[C@@H]4c4ccccc4)C3)cc2)C[C@H]1C(=O)NCCCCCC` (single isomer, unassigned) [Compound 072, (3S,4S)-1-(4-((3S*,4R*)-3-(heptyloxy)-4-(hexylcarbamoyl)pyrrolidine-1-carbonyl)benzoyl)-N3,N4-bis((1S,2R)-2-phenylcyclopropyl)pyrrolidine-3,4-dicarboxamide]: the EC50 on TLR2 [2] and on TLR2 [3] (average of all runs (Table 3)) was 0.1 to 50 nM in each case.
Consider `CCCCCCNC(=O)[C@H](CNC(=O)c1ccc(C(=O)N2C[C@@H](C(=O)N[C@H]3C[C@@H]3c3ccccc3)[C@H](C(=O)N[C@H]3C[C@@H]3c3ccccc3)C2)cc1)NC(=O)CCCCCC` [Compound 025, (3S,4S)-1-(4-(((S)-2-heptanamido-3-(hexylamino)-3-oxopropyl)carbamoyl)benzoyl)-N3,N4-bis((1S,2R)-2-phenylcyclopropyl)pyrrolidine-3,4-dicarboxamide], for which the EC50 on TLR2 [2] and at TLR2 [3] (average of all runs (Table 3)) was 0.1 to 50 nM each time.
On to `CCCCCCCCCCCCCCC(=O)N[C@H]1CCN(C(=O)c2ccc(C(=O)N3C[C@@H](C(=O)N[C@H]4C[C@@H]4c4ccccc4)[C@H](C(=O)N[C@H]4C[C@@H]4c4ccccc4)C3)cc2)C1` [Compound 026, (3S,4S)-1-(4-((S)-3-pentadecanamidopyrrolidine-1-carbonyl)benzoyl)-N3,N4-bis((1S,2R)-2-phenylcyclopropyl)pyrrolidine-3,4-dicarboxamide], for which the EC50 at TLR2 [2] and on TLR2 [3] (average of all runs (Table 3)) was 51 to 350 nM throughout.
Turning to `CCCCCCCCCCCCCCC(=O)N[C@@H]1CCN(C(=O)c2ccc(C(=O)N3C[C@@H](C(=O)N[C@H]4C[C@@H]4c4ccccc4)[C@H](C(=O)N[C@H]4C[C@@H]4c4ccccc4)C3)cc2)C1` [Compound 027, (3S,4S)-1-(4-((R)-3-pentadecanamidopyrrolidine-1-carbonyl)benzoyl)-N3,N4-bis((1S,2R)-2-phenylcyclopropyl)pyrrolidine-3,4-dicarboxamide], the EC50 at TLR2 [2] and at TLR2 [3] (average of all runs (Table 3)) was 0.1 to 50 nM in each case.
For the compound `CCCCCCCC(=O)N1CCN(C(=O)c2ccc(C(=O)N3C[C@@H](C(=O)N[C@H]4C[C@@H]4c4ccccc4)[C@H](C(=O)N[C@H]4C[C@@H]4c4ccccc4)C3)cc2)C[C@@H]1C(=O)NCCCCCC` [Compound 032, (3S,4S)-1-(4-((R)-3-(hexylcarbamoyl)-4-octanoylpiperazine-1-carbonyl)benzoyl)-N3,N4-bis((1S,2R)-2-phenylcyclopropyl)pyrrolidine-3,4-dicarboxamide], the 50% effective concentration (EC50) at TLR2 [2] and on TLR2 [3] (average of all runs (Table 3)) was 0.1 to 50 nM throughout.
For the compound `CCCCCCCC(=O)N1CCN(C(=O)c2ccc(C(=O)N3C[C@@H](C(=O)N[C@H]4C[C@@H]4c4ccccc4)[C@H](C(=O)N[C@H]4C[C@@H]4c4ccccc4)C3)cc2)CC1C(=O)NCCc1ccc(F)cc1` (stereo partly drawn) [Compound 036, (3S,4S)-1-(4-(3-((4-fluorophenethyl)carbamoyl)-4-octanoylpiperazine-1-carbonyl)benzoyl)-N3,N4-bis((1S,2R)-2-phenylcyclopropyl)pyrrolidine-3,4-dicarboxamide], the EC50 on TLR2 [2] and at TLR2 [3] (average of all runs (Table 3)) was 0.1 to 50 nM in each case.
Regarding `CCCCCCCCCCCCCCNC(=O)[C@H]1CN(C(=O)c2ccc(C(=O)N3C[C@@H](C(=O)N[C@H]4C[C@@H]4c4ccccc4)[C@H](C(=O)N[C@H]4C[C@@H]4c4ccccc4)C3)cc2)CCN1C` [Compound 059, (3S,4S)-1-(4-((R)-4-methyl-3-(tetradecylcarbamoyl)piperazine-1-carbonyl)benzoyl)-N3,N4-bis((1S,2R)-2-phenylcyclopropyl)pyrrolidine-3,4-dicarboxamide formate], the EC50 at TLR2 [2] and on TLR2 [3] (average of all runs (Table 3)) was 0.1 to 50 nM in each case.
For the compound `CCCCCCCCN1C(=O)CN(C(=O)c2ccc(C(=O)N3C[C@@H](C(=O)N[C@H]4C[C@@H]4c4ccccc4)[C@H](C(=O)N[C@H]4C[C@@H]4c4ccccc4)C3)cc2)C[C@@H]1C(=O)NCCCCCC` [Compound 075, (3S,4S)-1-(4-((R)-3-(hexylcarbamoyl)-4-octyl-5-oxopiperazine-1-carbonyl)benzoyl)-N3,N4-bis((1S,2R)-2-phenylcyclopropyl)pyrrolidine-3,4-dicarboxamide], the EC50 on TLR2 [2] lay within 0.1 to 50 nM; on TLR2 [3] (average of all runs (Table 3)), 51 to 350 nM.
For the compound `CCCCCCCC(=O)N1CC(=O)N(Cc2ccc(C(=O)N3C[C@@H](C(=O)N[C@H]4C[C@@H]4c4ccccc4)[C@H](C(=O)N[C@H]4C[C@@H]4c4ccccc4)C3)cc2)C[C@H]1C(=O)NCCCCCC` [Compound 076, (3S,4S)-1-(4-(((S)-5-(hexylcarbamoyl)-4-octanoyl-2-oxopiperazin-1-yl)methyl)benzoyl)-N3,N4-bis((1S,2R)-2-phenylcyclopropyl)pyrrolidine-3,4-dicarboxamide], the EC50 on TLR2 [2] and at TLR2 [3] (average of all runs (Table 3)) was 0.1 to 50 nM each time.
For the compound `CCCCCCCCCCCCCCNC(=O)[C@@H]1CCCN(C(=O)c2ccc(C(=O)N3C[C@@H](C(=O)N[C@H]4C[C@@H]4c4ccccc4)[C@H](C(=O)N[C@H]4C[C@@H]4c4ccccc4)C3)cc2)C1` [Compound 102, (3S,4S)—N3,N4-bis((1S,2R)-2-phenylcyclopropyl)-1-(4-((R)-3-(tetradecylcarbamoyl)piperidine-1-carbonyl)benzoyl) pyrrolidine-3,4-dicarboxamide], the EC50 on TLR2 [2] and at TLR2 [3] (average of all runs (Table 4)) was 0.1 to 50 nM each time.
`CCCCCCCCCCCCCCNC(=O)[C@H]1CN(C(=O)c2ccc(C(=O)N3C[C@@H](C(=O)N[C@H]4C[C@@H]4c4ccccc4)[C@H](C(=O)N[C@H]4C[C@@H]4c4ccccc4)C3)cc2)C[C@@H]1OC` [Compound 110, (3S,4S)-1-(4-((3R,4S)-3-methoxy-4-(tetradecylcarbamoyl)pyrrolidine-1-carbonyl)benzoyl)-N3,N4-bis((1S,2R)-2-phenylcyclopropyl)pyrrolidine-3,4-dicarboxamide]: the EC50 at TLR2 [2] and at TLR2 [3] (average of all runs (Table 4)) was 0.1 to 50 nM each time.
